The target in the series is T1, telomerase (Homo sapiens, UniProt O14746).
T1 construct: showing the effect of TBT oligonucleotide length in HEK293T cell lysates; endogenous in cells; host or cells: HEK293T cell lysate (CHAPS lysis buffer)
Briefly: TBT telomerase assay: effect of oligonucleotide length in HEK293T cell lysates. It is filed as biochemical. Conditions: luminescence, compared with short (0.5 repeat) and 2.5 repeat versions, FIG. 16. An excerpt:
FIG. 16 is a graphical representation showing the effect of TBT oligonucleotide length in HEK293T cell lysates. […]

{SH-C6} = thiol hexyl linker

T1 sequence (O14746 whole entry): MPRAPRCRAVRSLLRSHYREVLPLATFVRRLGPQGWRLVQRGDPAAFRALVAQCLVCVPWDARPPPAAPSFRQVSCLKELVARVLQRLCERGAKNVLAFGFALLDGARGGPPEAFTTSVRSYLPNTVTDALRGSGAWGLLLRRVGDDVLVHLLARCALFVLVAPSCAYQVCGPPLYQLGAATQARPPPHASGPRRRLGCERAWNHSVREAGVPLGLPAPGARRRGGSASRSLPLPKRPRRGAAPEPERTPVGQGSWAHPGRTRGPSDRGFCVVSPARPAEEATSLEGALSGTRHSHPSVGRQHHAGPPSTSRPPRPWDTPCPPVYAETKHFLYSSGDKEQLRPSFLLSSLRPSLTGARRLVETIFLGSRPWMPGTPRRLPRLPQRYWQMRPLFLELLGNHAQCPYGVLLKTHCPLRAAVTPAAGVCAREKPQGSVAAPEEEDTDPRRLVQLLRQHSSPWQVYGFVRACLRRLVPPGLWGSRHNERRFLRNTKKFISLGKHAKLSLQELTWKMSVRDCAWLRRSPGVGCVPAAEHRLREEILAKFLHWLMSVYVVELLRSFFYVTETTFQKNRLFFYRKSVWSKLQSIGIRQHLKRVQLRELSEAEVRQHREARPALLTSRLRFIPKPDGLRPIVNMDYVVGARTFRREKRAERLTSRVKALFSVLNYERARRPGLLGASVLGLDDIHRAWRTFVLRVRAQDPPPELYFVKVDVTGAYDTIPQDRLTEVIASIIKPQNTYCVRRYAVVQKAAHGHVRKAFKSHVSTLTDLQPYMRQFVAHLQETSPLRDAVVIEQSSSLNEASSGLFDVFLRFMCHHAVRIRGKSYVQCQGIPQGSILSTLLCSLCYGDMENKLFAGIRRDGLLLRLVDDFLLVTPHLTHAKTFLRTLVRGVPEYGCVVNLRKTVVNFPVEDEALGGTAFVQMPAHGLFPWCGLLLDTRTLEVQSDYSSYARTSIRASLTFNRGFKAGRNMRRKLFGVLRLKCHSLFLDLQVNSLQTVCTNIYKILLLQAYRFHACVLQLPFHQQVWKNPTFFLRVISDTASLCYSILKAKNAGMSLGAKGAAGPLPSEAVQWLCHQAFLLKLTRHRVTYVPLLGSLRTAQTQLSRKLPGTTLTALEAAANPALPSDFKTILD
T1 sequence (O60832 whole entry partner): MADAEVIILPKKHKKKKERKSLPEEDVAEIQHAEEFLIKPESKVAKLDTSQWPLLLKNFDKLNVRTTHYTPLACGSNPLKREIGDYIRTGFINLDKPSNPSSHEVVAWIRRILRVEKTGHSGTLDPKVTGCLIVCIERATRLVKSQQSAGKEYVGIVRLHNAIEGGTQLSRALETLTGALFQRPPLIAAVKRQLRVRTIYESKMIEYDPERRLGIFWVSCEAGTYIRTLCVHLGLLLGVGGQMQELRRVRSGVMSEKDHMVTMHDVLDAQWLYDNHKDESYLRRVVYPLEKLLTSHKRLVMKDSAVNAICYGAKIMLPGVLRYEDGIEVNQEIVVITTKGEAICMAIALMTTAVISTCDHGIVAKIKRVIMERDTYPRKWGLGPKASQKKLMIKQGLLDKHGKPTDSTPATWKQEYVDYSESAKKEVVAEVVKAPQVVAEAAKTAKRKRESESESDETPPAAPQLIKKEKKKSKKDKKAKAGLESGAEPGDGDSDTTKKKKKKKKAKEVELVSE
T1 sequence (Q9NPE3 whole entry partner): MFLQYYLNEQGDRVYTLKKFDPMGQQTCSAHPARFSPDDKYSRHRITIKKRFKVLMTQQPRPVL
T1 sequence (Q9NX24 whole entry partner): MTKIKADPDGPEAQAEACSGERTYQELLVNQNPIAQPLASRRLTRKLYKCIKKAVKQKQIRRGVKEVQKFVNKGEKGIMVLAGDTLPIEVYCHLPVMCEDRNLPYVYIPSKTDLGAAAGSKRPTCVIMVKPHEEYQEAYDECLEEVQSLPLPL
T1 sequence (Q9NY12 whole entry partner): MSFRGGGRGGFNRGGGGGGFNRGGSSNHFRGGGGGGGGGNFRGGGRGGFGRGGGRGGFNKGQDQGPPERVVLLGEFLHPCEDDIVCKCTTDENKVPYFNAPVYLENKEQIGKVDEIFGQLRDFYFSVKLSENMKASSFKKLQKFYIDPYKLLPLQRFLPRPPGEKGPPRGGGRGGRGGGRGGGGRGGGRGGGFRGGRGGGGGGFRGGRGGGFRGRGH
T1 sequence (Q9BUR4 whole entry partner): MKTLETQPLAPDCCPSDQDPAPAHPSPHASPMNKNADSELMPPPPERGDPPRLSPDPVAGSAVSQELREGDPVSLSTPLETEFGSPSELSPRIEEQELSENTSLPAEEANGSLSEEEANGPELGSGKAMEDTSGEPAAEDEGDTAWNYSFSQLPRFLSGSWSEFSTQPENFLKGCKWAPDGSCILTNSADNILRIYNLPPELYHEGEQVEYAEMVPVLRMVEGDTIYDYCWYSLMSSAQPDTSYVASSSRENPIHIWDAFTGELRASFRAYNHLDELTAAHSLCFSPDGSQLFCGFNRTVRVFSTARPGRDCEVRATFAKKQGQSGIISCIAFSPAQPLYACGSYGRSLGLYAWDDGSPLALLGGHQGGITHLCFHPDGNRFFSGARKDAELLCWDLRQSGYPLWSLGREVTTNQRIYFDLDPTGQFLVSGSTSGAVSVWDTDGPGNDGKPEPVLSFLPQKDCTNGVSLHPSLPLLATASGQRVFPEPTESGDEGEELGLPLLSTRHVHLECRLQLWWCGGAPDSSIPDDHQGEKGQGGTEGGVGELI

In the case of “5′SH-(CH2)6-TTTTTTAATCCGTCGAGCAGAGTTAGGGTTAGGGTTAGG GTTAGGGTTAG (DNA TTTTTTAATCCGTCGAGCAGAGTTAGGGTTAGGGTTAGGGTTAGGGTTAG; DNA, 5' {SH-C6}, backbone and methylation of C not given here; bead-immobilized telomerase substrate oligo; listed as Homo sapiens) [longer version]”, the “absolute signal relative to the background signal (no telomerase extract)” value is given as “better absolute signal relative to the background signal”.

The record behind these values is patent US20090226907A1, “ASSAY FOR DETECTION OF TELOMERASE ACTIVITY” (Sienna Cancer Diagnostics Limited, priority 2005, published 2009).
